Measurements: PubChem BioAssay AID624167 (Sanford-Burnham Center for Chemical Genomics, 2012)
Active and inactive are the calls of the source.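 How the source made its calls: active means mean IC50 for reducing PEG3 promoter reporter signal at or below a set limit, with IC50 above the limit in both counter screens; inactive means the rest, including counter screen hits.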

Tests used:
PEG-3 [1] = molecular target: PEG-3 (UniProt Q6IN02); experiment: inhibition of PEG-3 promoter-driven reporter – cell-based, HeLa, luciferase, CREF/GAPDH counter-screen panel, dose response (AID 624167); details: HeLa PEG-Prom luciferase reporter, overnight, CREF/GAPDH counter-screens, mean of runs
PEG-3 [2] = experiment: as above; details: HeLa PEG-Prom luciferase reporter, overnight, CREF/GAPDH counter-screens
[3] = run 1, dose range 1, individual replicate IC50 per panel
[4] = run 2, dose range 1, individual replicate IC50 per panel

Chain of PEG-3 (UniProt Q6IN02) (Q6IN02 whole entry, looked up): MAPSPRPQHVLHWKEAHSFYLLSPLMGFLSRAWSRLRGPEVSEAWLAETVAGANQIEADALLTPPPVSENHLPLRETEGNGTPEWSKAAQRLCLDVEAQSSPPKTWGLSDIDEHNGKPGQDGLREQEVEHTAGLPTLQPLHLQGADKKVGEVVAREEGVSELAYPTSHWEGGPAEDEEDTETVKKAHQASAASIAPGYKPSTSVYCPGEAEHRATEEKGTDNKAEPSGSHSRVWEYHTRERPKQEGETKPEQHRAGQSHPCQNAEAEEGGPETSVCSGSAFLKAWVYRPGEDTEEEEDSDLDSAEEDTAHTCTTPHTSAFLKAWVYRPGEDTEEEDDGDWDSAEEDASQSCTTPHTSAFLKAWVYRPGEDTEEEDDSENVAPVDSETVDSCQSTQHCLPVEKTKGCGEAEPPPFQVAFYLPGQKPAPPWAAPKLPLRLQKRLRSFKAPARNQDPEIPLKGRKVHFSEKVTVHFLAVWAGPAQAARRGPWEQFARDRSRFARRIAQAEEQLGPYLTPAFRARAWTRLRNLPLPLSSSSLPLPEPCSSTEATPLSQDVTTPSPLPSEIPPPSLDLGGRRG

Row | Compound | IC50 (PEG-3 [1]) | IC50 (PEG-3 [2]; [3]) | IC50 (PEG-3 [2]; [4])
1 | O=[N+]([O-])c1ccc(NC2CCN(Cc3ccccc3)CC2)c2ccncc12 | inactive | 23.9 µM | 21.7 µM
2 | CN(C)CC(O)COc1ccc(C(C)(C)c2ccc(OCC(O)CN(C)C)cc2)cc1 (stereo not given) | inactive | 26.8 µM | > 100 µM
3 | Cc1cc(C)c2ccc(N)nc2c1O | 15.3 µM | 7.69 µM | 22.9 µM
4 | CC(C)(c1ccccc1)c1ccc(OCC(O)CNC2CCN(Cc3ccccc3)CC2)cc1 (stereo not given) | 15.7 µM | 21.9 µM | 9.42 µM
5 | c1ccc(CN2CCC(Nc3nc(-c4cccnc4)nc4ccccc34)CC2)cc1 | inactive | 20.2 µM | 26.7 µM
6 | c1ccc(C(=NNc2nc3ccccc3s2)c2ccccn2)cc1 | 16 µM | 6.63 µM | 25.3 µM
7 | COc1cccc(C(=O)O/N=C(\N)c2ccccn2)c1 | 11.1 µM | 15.2 µM | 7.08 µM
8 | Cc1ccc(NCCN(C)C)c2c(=O)c3cc(O)ccc3sc12 | 13.6 µM | 19.1 µM | 8.02 µM
9 | CCCN1CCc2c(sc(NC(=O)c3ccc(S(=O)(=O)N4CCN(C(=O)OCC)CC4)cc3)c2C(N)=O)C1 | inactive | 21.9 µM | 21.2 µM
10 | Cc1cc(C)c2sc(N(CCCN(C)C)C(=O)c3ccc(S(=O)(=O)N(C)Cc4ccccc4)cc3)nc2c1 | 18.9 µM | 20.3 µM | 17.4 µM
11 | Cc1ccccc1NC(=O)C(=Cc1ccc(C(=O)O)cc1)C(=O)Nc1ccccc1C | inactive | 37.3 µM | 74.4 µM
12 | CNC[C@H](CC1CCCCC1)NC[C@H](NCCC1CCCC1)[C@H](C)O | inactive | 37.6 µM | 12.4 µM
13 | O=C(O)c1ccc(N/N=C/c2ccc(OC(=O)c3ccccc3Cl)cc2)cc1 | inactive | 3.06 µM | 78.5 µM
14 | CCCCN(C)C(=O)c1ccc(Nc2nc(C(N)CCc3ccccc3)cs2)nc1 (stereo not given) | inactive | 27.6 µM | 15.4 µM
15 | COc1ccc(-c2nc3c(C(=O)NCCN(C)C)cccc3c3ccccc23)cc1 | 15 µM | 17.3 µM | 12.8 µM
16 | COc1ccc(CN(C)C(=O)c2cc(-c3ccc(C)cc3C)nc3ccccc23)c(OC)c1OC | 19.8 µM | 14.9 µM | 24.8 µM
17 | CCOc1cc(CNCCO)cc(Br)c1OCc1ccccc1Cl | inactive | 41.2 µM | 73.4 µM
18 | Cc1cccc(/C=C2/Sc3ccc(C(=O)NCCN4CCCC4)cc3NC2=O)c1 | 15.4 µM | 20.8 µM | 9.95 µM
19 | COc1cc(NC(=O)Nc2nc(C(N)CCc3ccccc3)cs2)cc(OC)c1OC (stereo not given) | inactive | 21.3 µM | 40.6 µM
20 | COc1ccc(CCn2c(=N)c(C(=O)NC3CCCC3)cc3c(=O)n4cccc(C)c4nc32)cc1 | inactive | 15.8 µM | 42.7 µM
21 | CCC1(c2ccccc2)NC(=O)N(CC(=O)Nc2cc(S(=O)(=O)N3CCCCCC3)ccc2OC)C1=O (stereo not given) | 13.7 µM | 13.9 µM | 13.5 µM
22 | CCCCCCCCCCCCCCCC(O)C[N+](C)(C)CCO (stereo not given) | 13 µM | 17.7 µM | 8.35 µM

Row | Compound | IC50 (PEG-3 [1]) | IC50 (PEG-3 [2]; [3]) | IC50 (PEG-3 [2]; [4])
23 | CCN(CC)CCSc1nnc2c3cc(C)ccc3n(Cc3ccccc3)c2n1 | inactive | 30.6 µM | 93.6 µM
24 | Cc1[nH]c2ccc(OC(F)(F)F)cc2c1CCNCc1cccc([N+](=O)[O-])c1 | inactive | 25.1 µM | > 100 µM
25 | Cc1ccc(S(=O)(=O)N2CCCCC2)cc1C(=O)N(C)CC(=O)Nc1ccc(Cl)c(C(F)(F)F)c1 | inactive | 45.1 µM | 42.7 µM
26 | Cc1nn(-c2ccccc2Cl)c(Cl)c1/C=N/Nc1nc2ccccc2s1 | < 0.2 µM | < 0.2 µM | < 0.2 µM
27 | O=C1NC(=O)N(Cc2ccco2)C(=O)/C1=C/C=C/c1ccco1 | 13.7 µM | 14.8 µM | 12.6 µM
28 | Cc1cccc(C)c1-n1nnnc1C(c1ccccc1OC(F)(F)F)N1CCC(n2c(=O)[nH]c3ccccc32)CC1 (stereo not given) | 12.7 µM | 20.8 µM | 4.64 µM
29 | COc1ccc(CCNC(=O)C(=O)NCC2CCCN2S(=O)(=O)c2ccccc2)cc1OC (stereo not given) | inactive | 29.8 µM | 39.3 µM
30 | O=C1NC(=O)N(Cc2ccc(F)cc2)C(=O)/C1=C\C=C\c1ccco1 | 14.9 µM | 16.8 µM | 13 µM
31 | COC(=O)c1ccc(OCC2c3cc(OC)c(OC)cc3CCN2C(=O)c2ccco2)cc1 (stereo not given) | 19.4 µM | 25.2 µM | 13.6 µM
32 | COc1cccc(C2CC3C(=O)C=CC2N3Cc2ccccc2)c1 (stereo not given) | 13 µM | 11.9 µM | 14.1 µM
33 | CCn1c(C)cc(C(=O)COC(=O)c2ccccc2[N+](=O)[O-])c1C | 18.8 µM | 35.8 µM | 1.77 µM
34 | COc1ccc(NC(=O)N(C)[C@H]2C[C@H]3c4[nH]c5ccc(-c6cccc(C)c6)cc5c4CCN3C[C@H]2[C@H](C)O)cc1 | inactive | 23.6 µM | 22.7 µM
35 | Cc1cc(Br)ccc1NC(=O)CN1C(=O)C2C3CC(c4ccccc4)C(C3)C2C1=O (stereo not given) | inactive | 23.9 µM | 41.9 µM
36 | CC(C)N1CCc2c(sc(NC(=O)c3cc4cc([N+](=O)[O-])ccc4s3)c2C(N)=O)C1 | inactive | 22.5 µM | 17.6 µM
37 | Cc1ccc(S(=O)(=O)CCSC(=N)N)cc1 | inactive | 36.6 µM | 42.7 µM
38 | CCCN1C/C(=C/c2cccc([N+](=O)[O-])c2)C(=O)/C(=C/c2cccc([N+](=O)[O-])c2)C1 | inactive | 6.69 µM | > 100 µM
39 | Cc1ccc(-c2cc(-c3ccc(C)cc3)[n+](-c3ccccc3)c(-c3ccc(C)cc3)c2)cc1 | > 100 µM (inactive) | > 100 µM | > 100 µM
40 | Cc1nn(C(C)(C)C)c(C)c1/C=N/OC(=O)Nc1ccc(Cl)cc1 | 3.17 µM | 6.13 µM | < 0.2 µM
41 | O=c1c2ccccc2nc(CSc2ncnc3nc[nH]c23)n1-c1ccc(Cl)c(Cl)c1 | inactive | 8.77 µM | > 100 µM
42 | Cc1ccc2cc3c(N)c4c(C)ccc(C)c4nc3nc2c1 | inactive | > 100 µM | 17.1 µM
43 | CC(=O)c1ccc(Nc2cc(C)nc3ccc(C)cc23)cc1 | 13.3 µM | 21.8 µM | 4.69 µM
44 | CCOc1cc(CNCCCN2CCOCC2)ccc1OCC(=O)Nc1cccc2ccccc12 | 18.7 µM | 21.1 µM | 16.2 µM

Row | Compound | IC50 (PEG-3 [1]) | IC50 (PEG-3 [2]; [3]) | IC50 (PEG-3 [2]; [4])
45 | O=C1CCC2S/C(=C/Nc3ccc(C(F)(F)F)cc3)C(=O)N12 (stereo not given) | inactive | 6.39 µM | 47.7 µM
46 | NC(=O)c1nsc(C(=O)N(c2ccccc2F)C(C(=O)NCc2ccccc2)c2ccc(O)cc2)c1N (stereo not given) | inactive | 39.4 µM | > 100 µM
47 | O=C(NC1=C(NC2CCS(=O)(=O)C2)C(=O)c2ccccc2C1=O)c1ccccc1 (stereo not given) | 18.9 µM | 19.1 µM | 18.7 µM
48 | CCOC(=O)c1c(NC(C)=O)sc2c(OCC(O)CN(CC)CC)c(Br)ccc12 (stereo not given) | 13.9 µM | 20.7 µM | 7.1 µM
49 | NCCc1c(-c2ccccc2)n(-c2ccccc2)c2ccccc12 | 12.9 µM | 17.4 µM | 8.4 µM
50 | C[C@@H](NCCCn1cnc2c(OCc3ccccc3)ncnc21)c1cccc2ccccc12 | 16.5 µM | 17.7 µM | 15.2 µM
51 | COc1ccccc1NC(=O)Nc1nc(C(N)CCc2ccccc2)cs1 (stereo not given) | 14.2 µM | 12.2 µM | 16.3 µM
52 | COc1ccc2c(c1)[nH]c1c(=O)n(/N=C/C3C(C)C=C(C)CC3C)c(=O)[nH]c12 (stereo not given) | > 100 µM (inactive) | > 100 µM | > 100 µM
53 | O=C(C=Cc1ccccn1)c1ccccc1 | 16.6 µM | 20.7 µM | 12.5 µM
54 | Cc1ccccc1NC(=O)Nc1nc(C(N)C2CCCCC2)cs1 (stereo not given) | inactive | 21.1 µM | 26.5 µM
55 | CCCOC(=O)c1cccc(Nc2nc(-c3cccnc3)nc3ccccc23)c1 | 12.3 µM | 12.6 µM | 11.9 µM
56 | COc1ccc(N(Cc2cc3cc(OC)ccc3[nH]c2=O)S(=O)(=O)c2ccc(NC(C)=O)cc2)cc1 | 14.4 µM | 17.8 µM | 11 µM
57 | CC(C)CC1C(=O)N(Cc2cn(CCC3OCCO3)nn2)CCS(=O)(=O)N1Cc1ccc(-c2ccc(F)cc2)cc1 (stereo not given) | inactive | 31.3 µM | 33.2 µM
58 | O=C1NC(Cc2ccc(O)cc2)c2nc3ccc(F)cc3c(=O)n2-c2cc3ccccc3cc21 (stereo not given) | inactive | 19.9 µM | 34.4 µM
59 | COc1cccc(-c2cnc3c(NC=O)cc(-c4cccc(C(=O)N(C)C)c4)cn23)c1 | 18.8 µM | 19.9 µM | 17.7 µM
60 | COc1ccccc1CNC(=O)c1c(N)n(CCCN2CCOCC2)c2nc3ccccc3nc12 | 14.1 µM | 18.3 µM | 9.79 µM
61 | COc1ccc(CCNC(=O)c2cc3c(=O)n4ccccc4nc3n(C3CCCCC3)c2=N)cc1 | > 100 µM (inactive) | > 100 µM | > 100 µM
62 | Cc1cc(C)c(CN2CCN(CCCn3cnc(C(=O)Nc4ccc(C)c(C)c4)n3)CC2)c(C)c1 | 16.1 µM | 19 µM | 13.1 µM
63 | COc1ccc(CNC(=O)Nc2nc(C(N)Cc3ccc(F)cc3)cs2)cc1 (stereo not given) | 14.6 µM | 16.6 µM | 12.5 µM
64 | Cc1nc(N2CCN(c3ccccn3)CC2)c2c(C)c(C(=O)Nc3ccccc3F)sc2n1 | inactive | 9.97 µM | > 100 µM
65 | Cc1ccc(CC2(OCCN(C)C)CCC(C(C)(C)C)CC2)cc1 (stereo not given) | 16.8 µM | 19.1 µM | 14.6 µM
